# Columns and labels:
# [1] = system: phosphorylation of threonine 202 (Thr202) and tyrosine 204 (Tyr204) of ERK; experiment: ERK phosphorylation inhibitory effect by Cell ELISA in AsPC-1 (Test Example 2); type: cell-based, human; settings: Homo sapiens, ASPC1, AsPC-1 cells, cultured overnight with compound; 1 μM trametinib taken as 0%
# Method in brief: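 AsPC-1 cells (G12D KRAS) treated overnight with compound (10 points, 10 μM to 0.3 nM final), then glyoxal-fixed and immunostained for phospho-ERK with a fluorescent secondary read at 800 nm. IC50 by Sigmoid-Emax regression, with DMSO as 100% and 1 μM trametinib as 0%.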
# [2] = system: human G12D mutant KRAS-positive pancreatic cancer line AsPC-1; experiment: Non-anchorage-dependent cell growth inhibition, spheroid 3D cell culture (Test Example 3); type: cell-based; settings: AsPC-1 spheroid 3D culture, 6 days, CellTiter Glo 2.0
# Method in brief: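 AsPC-1 spheroids, 5×10^2 cells per well on low-adhesion round-bottom plates in RPMI 1640/10% FBS, dosed next day at 10 or 6 points spanning 10 μM to 0.3 nM final for 6 days at 37° C., 5% CO2. Viability by CellTiter Glo 2.0 luminescence; IC50 by Sigmoid-Emax regression, DMSO 100% and cell-free medium 0%.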
Compound,IC50 [1],"IC50 ([2]; Homo sapiens, ASPC1, 144 h)",IC50 [2]
"Cc1ncsc1-c1ccc([C@H](CO)NC(=O)[C@@H]2C[C@@H](O)CN2C(=O)[C@H](C(C)C)n2cc(-c3ccc(COc4c(-c5c(C)c(F)cc6[nH]ncc56)c(C5CC5)cc5c(N(C)[C@H]6CCNC6)nc(OC[C@H]6CCCO6)nc45)cc3)nn2)cc1 (atropisomer, axis not shown; (M)) [Example 9, (4R)-1-[(2S)-2-{4-[4-({[(7M) 6-cyclopropyl-7-(6-fluoro-5-methyl-1H-indazol-4-yl)-4-{methyl[(3S)-pyrrolidin-3-yl]amino}-2-{[(2R)-oxolan-2-yl]methoxy}quinazolin-8-yl}oxy}methyl)phenyl]-1H-1,2,3-triazol-1-yl}-3-methylbutanoyl]-4-hydroxy-N-{(1R)-2-hydroxy-1-[4-(4-methyl-1,3-thiazol-5-yl)phenyl]ethyl}-L-prolinamide]",11 nM,9 nM,–
"CO[C@@H](C)COc1cc(N(C)[C@H]2CCNC2)c2cc(C3CC3)c(-c3c(C)c(F)cc4[nH]ncc34)c(OCc3ccc(-c4cn([C@H](C(=O)N5C[C@H](O)C[C@H]5C(=O)N[C@@H](CO)c5ccc(-c6scnc6C)cc5)C(C)C)nn4)cc3)c2n1 (atropisomer, axis not shown; (M)) [Example 11, (4R)-1-[(2S)-2-{4-[4-({[(7M)-6-cyclopropyl-7-(6-fluoro-5-methyl-1H-indazol-4-yl)-2-[(2S)-2-methoxypropoxy]-4-{methyl[(3S)-pyrrolidin-3-yl]amino}quinazolin-8-yl]oxy}methyl)phenyl]-1H-1,2,3-triazol-1-yl}-3-methylbutanoyl]-4-hydroxy-N-{(1R)-2-hydroxy-1-[4-(4-methyl-1,3-thiazol-5-yl)phenyl]ethyl}-L-prolinamide]",24 nM,–,19 nM
"CCn1nccc1-c1ccc([C@H](CO)NC(=O)[C@@H]2C[C@@H](O)CN2C(=O)[C@H](C(C)C)n2cc(-c3ccc(COc4c(-c5c(C)c(F)cc6[nH]ncc56)c(C5CC5)cc5c(N(C)[C@H]6CCNC6)nc(OC[C@H](C)OC)nc45)cc3)nn2)cc1 (atropisomer, axis not shown; (M)) [Example 13]",8 nM,10 nM,–
"CCN(c1nc(OC[C@H](C)OC)nc2c(OCc3ccc(-c4cn([C@H](C(=O)N5C[C@H](O)C[C@H]5C(=O)N[C@@H](CO)c5ccc(-c6scnc6C)cc5)C(C)C)nn4)cc3)c(-c3c(C)c(F)cc4[nH]ncc34)c(C3CC3)cc12)[C@H]1CCNC1 (atropisomer, axis not shown; (M)) [Example 50, (4R)-1-[(2S)-2-(4-{4-[({(7M)-6-cyclopropyl-4-{ethyl[(3S)-pyrrolidin-3-yl]amino}-7-(6-fluoro-5-methyl-1H-indazol-4-yl)-2-[(2S)-2-methoxypropoxy]quinazolin-8-yl}oxy)methyl)phenyl}-1H-1,2,3-triazol-1-yl)-3-methylbutanoyl]-4-hydroxy-N-{(1R)-2-hydroxy-1-[4-(4-methyl-1,3-thiazol-5-yl)phenyl]ethyl}-L-prolinamide]",8 nM,8 nM,–
"CO[C@@H](C)COc1nc(N(C)[C@@H]2CCNC2)c2cc(C3CC3)c(-c3c(C)c(F)cc4[nH]ncc34)c(OCc3ccc(-c4cn([C@H](C(=O)N5C[C@H](O)C[C@H]5C(=O)N[C@@H](CO)c5ccc(-c6scnc6C)cc5)C(C)C)nn4)cc3)c2n1 (atropisomer, axis not shown; (M)) [Example 53]",9 nM,10 nM,–
